# Measured values from patent US8946203B2, “Benzodioxane inhibitors of leukotriene production” (Boehringer Ingelheim International GmbH, priority 2012, dated 2015).
# Target: T1, human LTA4 hydrolase (Homo sapiens, UniProt P09960)
# T1 sequence (P09960 1-611): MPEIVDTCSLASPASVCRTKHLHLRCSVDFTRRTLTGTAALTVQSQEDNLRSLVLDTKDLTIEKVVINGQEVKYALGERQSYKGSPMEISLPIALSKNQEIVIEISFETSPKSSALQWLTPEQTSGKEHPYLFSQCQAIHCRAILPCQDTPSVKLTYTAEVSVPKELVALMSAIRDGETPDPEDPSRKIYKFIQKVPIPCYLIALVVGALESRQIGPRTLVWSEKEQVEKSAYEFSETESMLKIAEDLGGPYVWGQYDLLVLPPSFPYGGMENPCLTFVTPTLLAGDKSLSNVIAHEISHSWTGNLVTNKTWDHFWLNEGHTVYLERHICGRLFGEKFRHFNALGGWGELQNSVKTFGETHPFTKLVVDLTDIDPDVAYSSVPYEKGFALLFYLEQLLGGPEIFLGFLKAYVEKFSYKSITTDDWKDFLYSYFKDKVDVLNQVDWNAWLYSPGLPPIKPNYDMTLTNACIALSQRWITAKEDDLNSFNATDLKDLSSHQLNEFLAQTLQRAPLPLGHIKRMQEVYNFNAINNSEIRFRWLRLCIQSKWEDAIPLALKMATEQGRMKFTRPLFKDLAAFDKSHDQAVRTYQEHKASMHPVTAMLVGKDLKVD
# Test: LTA4H Enzyme assay (cleavage of Arg-AMC, fluorescence)
# Type: biochemical
# Conditions: LTA4H Enzyme 1 nM, Arg-AMC substrate 50 μM, room temperature 1 h, fluorescence; read-out: IC50 values of LTA4H Enzyme assay
# In short: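 Aminomethylcoumarin release measured fluorimetrically (380/460 nm) after 1 h at room temperature. Reaction: 1 nM final enzyme, 50 μM final Arg-AMC and compound in Tris-HCl pH 7.5 with 100 mM KCl and 0.5% BSA.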
row,SMILES,IC50
1,"CN(Cc1ccc([C@H]2COc3cccnc3O2)cc1)C1CCN(S(C)(=O)=O)CC1 [Example 169, N-{4-[(3S)-2,3-dihydro[1,4]dioxino[2,3-b]pyridin-3-yl]benzyl}-N-methyl-1-(methylsulfonyl)piperidin-4-amine]",0.33 nM
2,"COCCOC1CCN(Cc2ccc([C@H]3COc4cccnc4O3)cc2)CC1 [Example 170, (3S)-3-(4-{[4-(2-methoxyethoxy)piperidin-1-yl]methyl}phenyl)-2,3-dihydro[1,4]dioxino[2,3-b]pyridine]",0.47 nM
3,"CN(C)C(=O)CC1CCN(Cc2ccc([C@H]3COc4cccnc4O3)cc2)CC1 [Example 171, 2-(1-{4-[(3S)-2,3-dihydro[1,4]dioxino[2,3-b]pyridin-3-yl]benzyl}piperidin-4-yl)-N,N-dimethylacetamide]",0.45 nM
4,"CS(=O)(=O)C1CCN(Cc2ccc([C@H]3COc4cccnc4O3)cc2)CC1 [Example 172, (3S)-3-(4-{[4-(methylsulfonyl)piperidin-1-yl]methyl}phenyl)-2,3-dihydro[1,4]dioxin[2,3-b]pyridine]",0.53 nM
5,"CS(=O)(=O)NC1CCN(Cc2ccc([C@H]3COc4ccccc4O3)cc2)CC1 [Example 176, N-(1-{4-[(2S)-2,3-dihydro-1,4-benzodioxin-2-yl]benzyl}piperidin-4-yl)methanesulfonamide]",0.24 nM
6,"CNC(=O)C1CCN(Cc2ccc([C@H]3COc4ccccc4O3)cc2)CC1 [Example 179, 1-{4-[(2S)-2,3-dihydro-1,4-benzodioxin-2-yl]benzyl}-N-methylpiperidine-4-carboxamide]",0.16 nM
7,"O=C(O)C[C@H]1CCCN(Cc2ccc([C@H]3COc4ccccc4O3)cc2)C1 [Example 182, [(3R)-1-{4-[(2S)-2,3-dihydro-1,4-benzodioxin-2-yl]benzyl}piperidin-3-yl]acetic acid]",0.29 nM
8,"CS(=O)(=O)N1CCN(Cc2ccc([C@H]3COc4cccnc4O3)cc2)CC1 [Example 188, (3S)-3-(4-{[4-(methylsulfonyl)piperazin-1-yl]methyl}phenyl)-2,3-dihydro[1,4]dioxino[2,3-b]pyridine]",0.87 nM
9,"O=C(O)[C@H]1CC[C@@H](NCc2ccc([C@H]3COc4ccccc4O3)cc2)C1 [Example 191, (1S,3R)-3-({4-[(2S)-2,3-dihydro-1,4-benzodioxin-2-yl]benzyl}amino)cyclopentane-carboxylic acid]",1.62 nM
10,"Fc1ccc2c(c1)OC(c1ccc(CN3CCOCC3)cc1)CO2 (stereo not shown) [Example 202, 4-[4-(7-Fluoro-2,3-dihydro-benzo[1,4]dioxin-2-yl)-benzyl]-morpholine]",23.4 nM

# Results, then the compound that gave them:
row,IC50,SMILES
1,1.45 nM,"N#CC1CCN(Cc2ccc([C@H]3COc4ccccc4O3)cc2)CC1 [Example 177, 1-{4-[(2S)-2,3-dihydro-1,4-benzodioxin-2-yl]benzyl}piperidine-4-carbonitrile]"
2,0.12 nM,"O=C(C1CCN(Cc2ccc([C@H]3COc4ccccc4O3)cc2)CC1)N1CCOCC1 [Example 180, (1-{4-[(2S)-2,3-dihydro-1,4-benzodioxin-2-yl]benzyl}piperidin-4-yl)(morpholin-4-yl)methanone]"
3,0.042 nM,"O=C(O)CCCC1CCN(Cc2ccc([C@H]3COc4ccccc4O3)cc2)CC1 [Example 181, 4-(1-{4-[(2S)-2,3-dihydro-1,4-benzodioxin-2-yl]benzyl}piperidin-4-yl)butanoic acid]"
4,0.11 nM,"O=C(O)C[C@H]1CCN(Cc2ccc([C@H]3COc4ccccc4O3)cc2)C1 [Example 184, [(3R)-1-{4-[(2S)-2,3-dihydro-1,4-benzodioxin-2-yl]benzyl}pyrrolidin-3-yl]acetic acid]"
5,0.16 nM,"O=C(O)C1CCN(Cc2ccc([C@H]3COc4cccnc4O3)cc2)CC1 [Example 189, 1-{4-[(3S)-2,3-dihydro[1,4]dioxino[2,3-b]pyridin-3-yl]benzyl}piperidine-4-carboxylic acid]"
6,1.59 nM,"O=C(O)C1CCN(Cc2ccc([C@@H]3COc4ccccc4O3)cc2)CC1 [Example 201, (R)-1-[4-(2,3-Dihydro-benzo[1,4]dioxin-2-yl)-benzyl]-piperidine-4-carboxylic acid]"
